Assay results from publication PMC12598805, “Crystal Structure–Activity Relationship of Some MeO Phenylacrylonitriles: Dual Antimicrobial–Cytotoxic Effects and in Silico Perspectives” (ChemistryOpen, 2025).
Values after ≈ are worked out from the molar mass of the structure shown.

Legend:
Type in all cases: cell-based
[1] = system: Bacillus subtilis (ATCC-19659); assay: Agar diffusion, zone of inhibition; details: B.subtilis, compounds at 50 mg mL^−1; for zone of inhibition at 50 mg/mL: Bacillus subtilis, ATCC19659
Description: (§1) The antibacterial and antifungal activities were reported utilizing the method described by the Clinical & Laboratory Standards Institute.^[ [31], [32] ^] Agar diffusion method was used to determine the antimicrobial activity of the synthesized substances. The media used were mueller hinton agar (MHA) for bacteria and sabouraud‐dextrose agar (SDA) for fungi (Merck), as recommended by the manufacturer.
(§2) The synthesized compounds were initially investigated for their antimicrobial activity to elucidate the potential therapeutic utility against various pathogenic microbes using the agar plate diffusion method. The compounds were tested at a concentration of 50 mg mL^−1, and the antibiotics (ampicillin, kanamycin, and amphotericin B) were used at 5 mg mL^−1. […] K.pneumoniae and B.cereus were resistant to ampicillin, while they were susceptible to kanamycin with inhibition values of 30 and 26 mm, respectively. No antimicrobial activity of the compounds was observed against E.faecalis, S.typhimurium, K.pneumoniae, and for the fungus compared to Amphotericin B (20 mm). […]
(§3) ATCC: American Type Culture Collection; NRRL: Northern Regional Research Laboratory The compounds 2(a-c) obtained could only be completely solubilised with dimethyl sulphoxide (DMSO) and the highest possible stock solutions of 50 mg.mL-1 were prepared. To these wells 50 μl of the previously prepared substances were transferred using sterile micropipette tips. For comparison, Ampicillin and kanamycin antibiotics for bacteria and Amphotericin B antibiotics for fungus were used as positive controls and DMSO was used as negative control. The prepared petri plates were kept at +4°C for about 1 hour and then the bacterial cultures were incubated at 37°C for 18-24 hours and mould cultures at 27-30°C for 48-72 hours. The zones formed were measured millimetrically with callipers. The experiments were performed with three repetitions. […]

[2] = system: Bacillus subtilis (ATCC-19659); assay: Broth microdilution MIC; details: ATCC19659, B.subtilis, read-out: MIC
Protocol: (§4) ATCC: American Type Culture Collection; NRRL: Northern Regional Research Laboratory The compounds 2(a-c) obtained could only be completely solubilised with dimethyl sulphoxide (DMSO) and the highest possible stock solutions of 50 mg.mL-1 were prepared. […]
(§5) 3.1. Determination of Minimum Inhibition Concentration (MIC)
(§6) The minimum inhibition concentration (MIC) values of the compounds 2(a-c) against the test bacteria used in the study were determined according to the broth microdilution method.[1-2] MHB or SDB was used as test medium and bacterial and yeast suspensions were prepared at 0.5 Mc Farland concentration for each test bacteria. Double layer serial dilutions were prepared in "U" type 96-well microtiter plates. Medium+bacteria suspensions containing only medium in the first row, medium+bacteria in the second row and the final concentrations of the synthesised substances in the other rows between 25 mg.mL-1 and […] were added to the wells with a final volume of 200
(§7) μL. Ampicillin, Kanamycin and Amphotericin B standard antibiotics were used as positive controls.
(§8) Bacteria were incubated at 37±0.1 °C and C. albicans at 30±0.1 °C for 24-48 hours and the lowest concentration without growth was determined as MIC. Tests were performed in two parallel runs and mean values were given as a result. […]

[3] = system: Escherichia coli (ATCC 25922); assay: Agar diffusion, zone of inhibition; details: compounds at 50 mg mL^−1; for zone of inhibition: E.coli; for zone of inhibition at 50 mg/mL: Escherichia coli, ATCC25922, E.coli
Description: as §1, §2
Escherichia coli (ATCC 25922) […]
as §3

[4] = system: Klebsiella pneumoniae (ATCC-70063); assay: Agar diffusion, zone of inhibition; details: Klebsiella pneumoniae, ATCC70063; K.pneumoniae; compounds at 50 mg mL^−1
Description: as §1, §2
Klebsiella pneumoniae (ATCC-70063)
as §3

[5] = system: Staphylococcus aureus (ATCC 29213); assay: MBC by sub-culture from wells without growth; details: ATCC29213, S.aureus
Protocol: (§9) Staphylococcus aureus (ATCC 29213) […]
as §4, §5, §6, §7
(§10) Bacteria were incubated at 37±0.1 °C and C. albicans at 30±0.1 °C for 24-48 hours and the lowest concentration without growth was determined as MIC. Tests were performed in two parallel runs and mean values were given as a result. In order to estimate “the minimum bactericidal/fungicidal concentrations (MBC/MFC) of the synthesised acrylonitrile derivatives “needed to indicate […] killing of the original inoculum,” 10 μl was taken from the wells with no observed growth and further sub-cultured onto their agar media (MHA and SDA for bacterial and fungal strains, respectively).[3] […]

[6] = system: Micrococcus luteus (NRRL-B-1018); assay: MBC by sub-culture from wells without growth; details: NRRLB1018, M.luteus
Protocol: (§11) Micrococcus luteus (NRRL-B-1018) […]
as §4, §5, §6, §7, §10

[7] = system: Staphylococcus aureus (ATCC 29213); assay: Agar diffusion, zone of inhibition; details: S.aureus, compounds at 50 mg mL^−1; for zone of inhibition at 50 mg/mL: Staphylococcus aureus, ATCC29213
Description: as §1, §2, §9, §3

[8] = system: Bacillus cereus (ATCC-10876); assay: MBC by sub-culture from wells without growth; details: Bacillus cereus, ATCC10876; B.cereus; read-out: MBC
Protocol: Bacillus cereus (ATCC-10876) […]
as §4, §5, §6, §7, §10

[9] = system: Micrococcus luteus (NRRL-B-1018); assay: Broth microdilution MIC; details: NRRLB1018, M.luteus
Protocol: as §11, §4, §5, §6, §7, §8

[10] = system: Pseudomonas aeruginosa (ATCC 27853); assay: MBC by sub-culture from wells without growth; details: ATCC27853, P.aeruginosa
Protocol: (§12) Pseudomonas aeruginosa (ATCC 27853) […]
as §4, §5, §6, §7, §10

[11] = system: Pseudomonas aeruginosa (ATCC 27853); assay: Broth microdilution MIC; details: ATCC27853, P.aeruginosa
Protocol: as §12, §4, §5, §6, §7, §8

[12] = system: Salmonella typhimurium (NRRL-B-4420); assay: Agar diffusion, zone of inhibition; details: Salmonella enterica; S.typhimurium; compounds at 50 mg mL^−1
Description: as §1, §2
Salmonella typhimurium (NRRL-B-4420) […]
as §3

SMILES	zone of inhibition [1] [mm]	zone of inhibition at 50 mg/mL [1] [mm]	MIC [2] [mg/mL]	zone of inhibition [3] [mm]	zone of inhibition at 50 mg/mL [3] [mm]	zone of inhibition at 50 mg/mL [4] [mm]	MBC [5] [mg/mL]	MBC [6] [mg/mL]	zone of inhibition [7] [mm]	zone of inhibition at 50 mg/mL [7] [mm]	MBC [8] [mg/mL]	MIC [9] [mg/mL]	MBC [10] [mg/mL]	MIC [11] [mg/mL]	zone of inhibition at 50 mg/mL [12] [mm]
COc1ccc(C=C(C#N)c2ccccc2)cc1 [2a, 3‐(4‐methoxyphenyl)‐2‐phenylacrylonitrile]	13 ± 0.71	13	25 (≈ 106 mM)	13 ± 0.71	13	< 6	25 (≈ 106 mM)	6.25 (≈ 26.6 mM)	14 ± 0.71	14	12.5 (≈ 53.1 mM)	6.25 (≈ 26.6 mM)	5 (≈ 21.3 mM)	5 (≈ 21.3 mM)	< 6
COc1ccc(/C=C(\C#N)c2ccc(F)cc2)cc1 [2b]	13 ± 2.12	13	25 (≈ 98.7 mM)	12 ± 1.41	12	< 6	25 (≈ 98.7 mM)	12.5 (≈ 49.4 mM)	13 ± 0	13	12.5 (≈ 49.4 mM)	12.5 (≈ 49.4 mM)	12.5 (≈ 49.4 mM)	12.5 (≈ 49.4 mM)	< 6
COc1ccc(/C=C(\C#N)c2cc(C(F)(F)F)cc(C(F)(F)F)c2)cc1 [2c]	14 ± 0	14	25 (≈ 67.3 mM)	13 ± 0	13	< 6	12.5 (≈ 33.7 mM)	5 (≈ 13.5 mM)	14 ± 1.41	14	12.5 (≈ 33.7 mM)	2.5 (≈ 6.73 mM)	12.5 (≈ 33.7 mM)	12.5 (≈ 33.7 mM)	< 6
